Experimental data: US20040106148A1, “Polypeptides” (priority 2000, published 2004)

Target: mouse centaurin-β2 PH domain (residues 266 to 390), GST fusion (Mus musculus, UniProt Q6ZQK5)
Assay: Protein-lipid overlay
Format: binding
Details: FIG. 2
Procedure: FIG. 2. Phosphoinositide binding properties of the novel PH domains. The ability of the indicated GST fusion proteins to bind a variety of phosphoinositides was analysed using a protein-lipid overlay. Serial dilutions of the indicated phosphoinositides (100 pmol, 50 pmol, 25 pmol, 12.5 pmol, 6.3 pmol, 3.1 pmol and 1.6 pmol) were spotted onto a nitrocellulose membranes which were then incubated with the purified GST fusion proteins. The membranes were washed and the GST-fusion proteins bound to the membrane by virtue of their interaction with lipid were detected using a GST antibody. A representative of at least 3 separate experiments carried out is shown.
Cloning of PH domains and preparation of expression constructs. All the human and mouse EST's were obtained from the I.M.A.G.E. Consortium and sequenced. The plant EST (accession number T04439) encoding a full length clone of AtPH1 was obtained from the Arabidopsis Biological Research. Centre (Ohio University). The sequence of each EST was verified and the full length PH domain of each EST was amplified by PCR using the Hi-fidelity PCR system with primers designed to incorporate a Kozak site, an initiating ATG codon followed by a myc epitope tag and a stop codon after the PH domain. […]

Sequence of mouse centaurin-β2 PH domain (residues 266 to 390), GST fusion (Q6ZQK5 266-390): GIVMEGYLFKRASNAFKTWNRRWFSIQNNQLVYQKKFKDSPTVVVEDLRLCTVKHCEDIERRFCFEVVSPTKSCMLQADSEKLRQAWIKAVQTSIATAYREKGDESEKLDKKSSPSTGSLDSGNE

phosphoinositide binding: moderate affinity
Structure (SMILES): CCCCCCCCCCCCCCCC(=O)OC[C@H](COP(=O)(O)O[C@@H]1[C@H](O)[C@H](OP(=O)(O)O)[C@@H](O)[C@H](OP(=O)(O)O)[C@H]1O)OC(=O)CCCCCCCCCCCCCCC [PtdIns(3,5)P2]
